Laboratory results as given in publication PMC3760497 (Nature, 2011).

Target: Get3 (Saccharomyces cerevisiae, UniProt Q12154, D57N)
Experiment: mant-ATP chase titration, fluorescence
Format: binding
Conditions: 1 uM Get3(D57N), 1 uM mant-ATP; 50 mM HEPES pH 7.5, 100 mM NaCl, 5 mM MgCl2; competitive with mant-ATP

Get3, sequence (Q12154 whole entry D57N): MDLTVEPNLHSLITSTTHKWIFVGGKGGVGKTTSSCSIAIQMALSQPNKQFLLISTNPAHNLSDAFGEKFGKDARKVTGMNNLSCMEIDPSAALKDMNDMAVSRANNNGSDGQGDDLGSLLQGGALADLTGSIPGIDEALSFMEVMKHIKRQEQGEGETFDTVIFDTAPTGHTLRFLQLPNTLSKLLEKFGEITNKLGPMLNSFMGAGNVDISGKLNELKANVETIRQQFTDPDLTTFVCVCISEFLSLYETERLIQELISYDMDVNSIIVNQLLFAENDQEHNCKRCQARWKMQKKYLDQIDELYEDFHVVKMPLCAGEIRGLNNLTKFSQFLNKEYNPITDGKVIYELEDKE

Which dissociation constant does the source give for Nc1ncnc2c1ncn2[C@@H]1O[C@H](COP(=O)(O)OP(=O)(O)O)[C@@H](O)[C@H]1O [ADP] here?
Its dissociation constant is “ADP (which binds weakly to substrate-free Get3; Sup. Fig. S18)”.
